Assay results as given in ChEMBL document CHEMBL1133215, “Natural and synthetic analogues of actinomycin D as Grb2-SH2 domain blockers” (Bioorg Med Chem Lett, 2000).
The source made the active and inactive calls. No cut-off for these calls is given here. Numbered stars: 1 amine (or outer) side, 2 acyl side, 3 side chain; on linkers, the order of the positions; unused ones are H or OH. Bridge positions count the residues as written; N and C are the ends. Square brackets hold non-standard residues; d marks the D form. Peptide text beside a SMILES is read from it. I, II: the chains in the order shown. Actinocin(1to9) = Cc1c2oc3c(C)ccc(C(=O)[*:2])c3nc-2c(C(=O)[*:1])c(N)c1=O; NMeV = CN[C@H](C(=O)O)C(C)C; Sar = CNCC(=O)O

Columns and labels:
B104 [1] = assay: Growth inhibitory activity was tested against B104-1-1 cells; type: functional, Mus musculus
[2] = molecular target: Growth factor receptor-bound protein 2 (Mus musculus) (UniProt Q60631); assay: In vitro inhibitory activity against Shc/Grb2 interactions in B104-1-1 cells at 2 uM; type: functional, cell-based
[3] = molecular target: Growth factor receptor-bound protein 2 (Mus musculus) (UniProt Q60631); assay: In vitro inhibitory activity against Shc/Grb2 interactions in B104-1-1 cells at 5 uM; type: functional, cell-based
[4] = molecular target: Growth factor receptor-bound protein 2 (Mus musculus, UniProt Q60631); assay: In vitro binding assay of Shc-derived phosphopeptide to Growth factor receptor bound protein 2 SH2 in B104-1-1 cells was determined; type: cell-based
B104 [5] = assay: Growth inhibitory activity against B104-1-1 cells; Not active; type: functional, cell-based; conditions: Mus musculus

Chain of Growth factor receptor-bound protein 2 (Mus musculus) (Q60631 whole entry): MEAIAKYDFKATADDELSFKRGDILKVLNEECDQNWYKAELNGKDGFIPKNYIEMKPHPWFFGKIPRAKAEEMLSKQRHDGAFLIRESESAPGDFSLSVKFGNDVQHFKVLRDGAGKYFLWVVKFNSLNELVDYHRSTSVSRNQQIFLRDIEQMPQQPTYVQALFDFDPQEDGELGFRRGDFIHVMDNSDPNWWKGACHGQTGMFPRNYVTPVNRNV
Chain of Growth factor receptor-bound protein 2 (Q60631 whole entry): as above

| Structure (SMILES) | GI50 (B104 [1]) [nM] | inhibition [2] [%] | inhibition [3] [%] | IC50 [4] [nM] | GI50 (B104 [5]) |
| --- | --- | --- | --- | --- | --- |
| Cc1c2oc3c(C)ccc(C(=O)N[C@@H]4C(=O)N[C@H](Cc5ccccc5)C(=O)N5CCC[C@H]5C(=O)N(C)CC(=O)N[C@@H](C(C)C)C(=O)O[C@@H]4C)c3nc-2c(C(=O)N[C@@H]2C(=O)N[C@H](Cc3ccccc3)C(=O)N3CCC[C@H]3C(=O)N(C)CC(=O)N[C@@H](C(C)C)C(=O)O[C@@H]2C)c(N)c1=O | 8 | 73.6 | 82.8 | 1200 |  |
| Cc1c2oc3c(C)ccc(C(=O)N[C@@H]4C(=O)N[C@H](C(C)C)C(=O)N5CCC[C@H]5C(=O)N(C)CC(=O)N[C@@H](Cc5ccc(O)cc5)C(=O)O[C@@H]4C)c3nc-2c(C(=O)N[C@@H]2C(=O)N[C@H](C(C)C)C(=O)N3CCC[C@H]3C(=O)N(C)CC(=O)N[C@@H](Cc3ccc(O)cc3)C(=O)O[C@@H]2C)c(N)c1=O (stereo in doubt; 10) [listing 1 of 2 here] |  | 75.9 | 89.7 |  |  |
| COc1ccc(C[C@@H]2NC(=O)CN(C)C(=O)[C@@H]3CCCN3C(=O)[C@@H](C(C)C)NC(=O)[C@@H](NC(=O)c3c4nc5c(C(=O)N[C@@H]6C(=O)N[C@H](C(C)C)C(=O)N7CCC[C@H]7C(=O)N(C)CC(=O)N[C@@H](Cc7ccc(OC)cc7)C(=O)O[C@@H]6C)ccc(C)c5oc-4c(C)c(=O)c3N)[C@@H](C)OC2=O)cc1 |  | 55.1 | 73.8 | 2000 |  |
| Cc1c2oc3c(C)ccc(C(=O)N[C@@H]4C(=O)N[C@H](C(C)C)C(=O)N5CCC[C@H]5C(=O)N(C)CC(=O)N[C@H](Cc5ccc(O)cc5)C(=O)O[C@@H]4C)c3nc-2c(C(=O)N[C@@H]2C(=O)N[C@H](C(C)C)C(=O)N3CCC[C@H]3C(=O)N(C)CC(=O)N[C@H](Cc3ccc(O)cc3)C(=O)O[C@@H]2C)c(N)c1=O (stereo in doubt; 5) [listing 1 of 2 here] |  | 3.5 | 27.4 |  | inactive |
| COc1ccc(C[C@H]2NC(=O)CN(C)C(=O)[C@@H]3CCCN3C(=O)[C@@H](C(C)C)NC(=O)[C@@H](NC(=O)c3c4nc5c(C(=O)N[C@@H]6C(=O)N[C@H](C(C)C)C(=O)N7CCC[C@H]7C(=O)N(C)CC(=O)N[C@H](Cc7ccc(OC)cc7)C(=O)O[C@@H]6C)ccc(C)c5oc-4c(C)c(=O)c3N)[C@@H](C)OC2=O)cc1 |  | 46.9 | 73 | 2000 |  |
| Cc1c2oc3c(C)ccc(C(=O)N[C@@H]4C(=O)N[C@H](C(C)C)C(=O)N5CCC[C@H]5C(=O)N(C)CC(=O)N[C@H](C(C)C)C(=O)O[C@@H]4C)c3nc-2c(C(=O)N[C@@H]2C(=O)N[C@H](C(C)C)C(=O)N3CCC[C@H]3C(=O)N(C)CC(=O)N[C@H](C(C)C)C(=O)O[C@@H]2C)c(N)c1=O | 3 | 72 | 86 | 1000 |  |
| Cc1c2oc3c(C)ccc(C(=O)N[C@@H]4C(=O)N[C@H](C(C)C)C(=O)N5CCC[C@H]5C(=O)N(C)CC(=O)N(C)[C@@H](C(C)C)C(=O)O[C@@H]4C)c3nc-2c(C(=O)N[C@@H]2C(=O)N[C@H](C(C)C)C(=O)N3CCC[C@H]3C(=O)N(C)CC(=O)N(C)[C@@H](C(C)C)C(=O)O[C@@H]2C)c(N)c1=O [DACTINOMYCIN] (I: T[dV]P[Sar][NMeV] / II: T[dV]P[Sar][NMeV]; ester I:1-I:C, II:1-II:C; linker I:N-II:N via Actinocin(1to9)) | 0.7 | 40.1 | 50.5 | 5000 |  |
| Cc1c2oc3c(C)ccc(C(=O)N[C@@H]4C(=O)N[C@H](C(C)C)C(=O)N5CCC[C@H]5C(=O)N(C)CC(=O)N[C@H](Cc5ccccc5)C(=O)O[C@@H]4C)c3nc-2c(C(=O)N[C@@H]2C(=O)N[C@H](C(C)C)C(=O)N3CCC[C@H]3C(=O)N(C)CC(=O)N[C@H](Cc3ccccc3)C(=O)O[C@@H]2C)c(N)c1=O | 3 | 75.1 | 87.7 | 900 |  |
| Cc1c2oc3c(C)ccc(C(=O)N[C@@H]4C(=O)N[C@H](Cc5ccc(O)cc5)C(=O)N5CCC[C@H]5C(=O)N(C)CC(=O)N[C@@H](C(C)C)C(=O)O[C@@H]4C)c3nc-2c(C(=O)N[C@@H]2C(=O)N[C@H](Cc3ccc(O)cc3)C(=O)N3CCC[C@H]3C(=O)N(C)CC(=O)N[C@@H](C(C)C)C(=O)O[C@@H]2C)c(N)c1=O (stereo in doubt; 7) [listing 1 of 2 here] |  |  |  | 4500 |  |
| Cc1c2oc3c(C)ccc(C(=O)N[C@@H]4C(=O)N[C@H](C(C)C)C(=O)N5CCC[C@H]5C(=O)N(C)CC(=O)N[C@@H](Cc5ccc(O)cc5)C(=O)O[C@@H]4C)c3nc-2c(C(=O)N[C@@H]2C(=O)N[C@H](C(C)C)C(=O)N3CCC[C@H]3C(=O)N(C)CC(=O)N[C@@H](Cc3ccc(O)cc3)C(=O)O[C@@H]2C)c(N)c1=O (stereo in doubt; 10) [listing 2 of 2 here] |  |  |  | 800 |  |
| Cc1c2oc3c(C)ccc(C(=O)N[C@@H]4C(=O)N[C@H](Cc5ccc(O)cc5)C(=O)N5CCC[C@H]5C(=O)N(C)CC(=O)N[C@@H](C(C)C)C(=O)O[C@@H]4C)c3nc-2c(C(=O)N[C@@H]2C(=O)N[C@H](Cc3ccc(O)cc3)C(=O)N3CCC[C@H]3C(=O)N(C)CC(=O)N[C@@H](C(C)C)C(=O)O[C@@H]2C)c(N)c1=O (stereo in doubt; 1) [listing 1 of 2 here] |  | 84.3 | 90.7 |  | inactive |
| Cc1c2oc3c(C)ccc(C(=O)N[C@@H]4C(=O)N[C@H](C(C)C)C(=O)N5CCC[C@H]5C(=O)N(C)CC(=O)N[C@H](Cc5ccc(O)cc5)C(=O)O[C@@H]4C)c3nc-2c(C(=O)N[C@@H]2C(=O)N[C@H](C(C)C)C(=O)N3CCC[C@H]3C(=O)N(C)CC(=O)N[C@H](Cc3ccc(O)cc3)C(=O)O[C@@H]2C)c(N)c1=O (stereo in doubt; 5) [listing 2 of 2 here] |  |  |  | > 10000 |  |
| Cc1c2oc3c(C)ccc(C(=O)N[C@@H]4C(=O)N[C@H](C(C)C)C(=O)N5CCC[C@H]5C(=O)N(C)CC(=O)N[C@H](Cc5ccc(O)cc5)C(=O)O[C@@H]4C)c3nc-2c(C(=O)N[C@@H]2C(=O)N[C@H](C(C)C)C(=O)N3CCC[C@H]3C(=O)N(C)CC(=O)N[C@H](Cc3ccc(O)cc3)C(=O)O[C@@H]2C)c(N)c1=O (stereo in doubt; 12) [listing 1 of 2 here] |  | 79.9 | 90.2 |  |  |
| Cc1c2oc3c(C)ccc(C(=O)N[C@@H]4C(=O)N[C@H](C(C)C)C(=O)N5CCC[C@H]5C(=O)N(C)CC(=O)N[C@H](Cc5ccc(O)cc5)C(=O)O[C@@H]4C)c3nc-2c(C(=O)N[C@@H]2C(=O)N[C@H](C(C)C)C(=O)N3CCC[C@H]3C(=O)N(C)CC(=O)N[C@H](Cc3ccc(O)cc3)C(=O)O[C@@H]2C)c(N)c1=O (stereo in doubt; 12) [listing 2 of 2 here] |  |  |  | 800 |  |
| CC[C@@H](C)[C@H]1NC(=O)CN(C)C(=O)[C@@H]2CCCN2C(=O)[C@@H]([C@H](C)CC)NC(=O)[C@@H](NC(=O)c2c3nc4c(C(=O)N[C@@H]5C(=O)N[C@H]([C@H](C)CC)C(=O)N6CCC[C@H]6C(=O)N(C)CC(=O)N[C@H]([C@H](C)CC)C(=O)O[C@@H]5C)ccc(C)c4oc-3c(C)c(=O)c2N)[C@@H](C)OC1=O | 1 | 15.1 | 25.3 | 7600 |  |
| Cc1c2oc3c(C)ccc(C(=O)N[C@@H]4C(=O)N[C@H](C(C)C)C(=O)N5CCC[C@H]5C(=O)N(C)CC(=O)N[C@@H](Cc5ccc(O)cc5)C(=O)O[C@@H]4C)c3nc-2c(C(=O)N[C@@H]2C(=O)N[C@H](C(C)C)C(=O)N3CCC[C@H]3C(=O)N(C)CC(=O)N[C@@H](Cc3ccc(O)cc3)C(=O)O[C@@H]2C)c(N)c1=O (stereo in doubt; 8) [listing 1 of 2 here] |  | 15.9 | 28.5 |  |  |
| Cc1c2oc3c(C)ccc(C(=O)N[C@@H]4C(=O)N[C@H](Cc5ccc(O)cc5)C(=O)N5CCC[C@H]5C(=O)N(C)CC(=O)N[C@@H](C(C)C)C(=O)O[C@@H]4C)c3nc-2c(C(=O)N[C@@H]2C(=O)N[C@H](Cc3ccc(O)cc3)C(=O)N3CCC[C@H]3C(=O)N(C)CC(=O)N[C@@H](C(C)C)C(=O)O[C@@H]2C)c(N)c1=O (stereo in doubt; 7) [listing 2 of 2 here] |  | 42.9 | 56.6 |  |  |
| Cc1c2oc3c(C)ccc(C(=O)N[C@@H]4C(=O)N[C@H](C(C)C)C(=O)N5CCC[C@H]5C(=O)N(C)CC(=O)N[C@@H](Cc5ccccc5)C(=O)O[C@@H]4C)c3nc-2c(C(=O)N[C@@H]2C(=O)N[C@H](C(C)C)C(=O)N3CCC[C@H]3C(=O)N(C)CC(=O)N[C@@H](Cc3ccccc3)C(=O)O[C@@H]2C)c(N)c1=O |  | 56.8 | 78.8 | 1800 |  |
| CC[C@@H](C)[C@H]1NC(=O)[C@@H](NC(=O)c2c3nc4c(C(=O)N[C@@H]5C(=O)N[C@H]([C@H](C)CC)C(=O)N6CCC[C@H]6C(=O)N(C)CC(=O)N[C@@H](C(C)C)C(=O)O[C@@H]5C)ccc(C)c4oc-3c(C)c(=O)c2N)[C@@H](C)OC(=O)[C@H](C(C)C)NC(=O)CN(C)C(=O)[C@@H]2CCCN2C1=O | 0.8 | 30.9 | 40.8 | 5900 |  |
| COc1ccc(C[C@H]2NC(=O)[C@@H](NC(=O)c3c4nc5c(C(=O)N[C@@H]6C(=O)N[C@H](Cc7ccc(OC)cc7)C(=O)N7CCC[C@H]7C(=O)N(C)CC(=O)N[C@@H](C(C)C)C(=O)O[C@@H]6C)ccc(C)c5oc-4c(C)c(=O)c3N)[C@@H](C)OC(=O)[C@H](C(C)C)NC(=O)CN(C)C(=O)[C@@H]3CCCN3C2=O)cc1 | 10 | 69.7 | 80.6 | 1500 |  |
| Cc1c2oc3c(C)ccc(C(=O)N[C@@H]4C(=O)N[C@H](Cc5ccc(O)cc5)C(=O)N5CCC[C@H]5C(=O)N(C)CC(=O)N[C@@H](C(C)C)C(=O)O[C@@H]4C)c3nc-2c(C(=O)N[C@@H]2C(=O)N[C@H](Cc3ccc(O)cc3)C(=O)N3CCC[C@H]3C(=O)N(C)CC(=O)N[C@@H](C(C)C)C(=O)O[C@@H]2C)c(N)c1=O (stereo in doubt; 1) [listing 2 of 2 here] |  |  |  | 500 |  |
| Cc1c2oc3c(C)ccc(C(=O)N[C@@H]4C(=O)N[C@H](C(C)C)C(=O)N5CCC[C@H]5C(=O)N(C)CC(=O)N[C@@H](Cc5ccc(O)cc5)C(=O)O[C@@H]4C)c3nc-2c(C(=O)N[C@@H]2C(=O)N[C@H](C(C)C)C(=O)N3CCC[C@H]3C(=O)N(C)CC(=O)N[C@@H](Cc3ccc(O)cc3)C(=O)O[C@@H]2C)c(N)c1=O (stereo in doubt; 8) [listing 2 of 2 here] |  |  |  | > 10000 |  |
